Columns and labels:
Experiment in all cases: Test D
Format in all cases: in vivo
[1] = tested on: field violet (Viola arvensis); settings: PREEMERGENCE
[2] = tested on: common poppy (Papaver rhoeas); design: key: 0 is no effect; 100 is complete control; settings: PREEMERGENCE
[3] = tested on: annual bluegrass (Poa annua); design: key: 0 is no effect; 100 is complete control; settings: PREEMERGENCE
[4] = tested on: winter barley (Hordeum vulgare); settings: POSTEMERGENCE
Protocol: (§1) Compounds evaluated in this test were formulated in a non-phytotoxic solvent mixture which included a surfactant and applied to plants that were in the 1- to 4-leaf stage (postemergence application). A mixture of sandy loam soil and greenhouse potting mix in a 60:40 ratio was used for the postemergence test.
(§2) Plantings of these crops and weed species were adjusted to produce plants of appropriate size for the postemergence test. All plant species were grown using normal greenhouse practices. Crop and weed species include alfalfa (Medicago sativa), annual bluegrass (Poa annua), blackgrass (Alopecurus myosuroides), black nightshade (Solanum nigra), chickweed (Stellaria media), common poppy (Papaver rhoeas), deadnettle (Lamium amplexicaule), downy brome (Bromus tectorum), field violet (Viola arvensis), galium 2 (Galium aparine), green foxtail (Setaria viridis), Italian ryegrass (Lolium multiflorum), jointed goatgrass (Aegilops cylindrica), kochia (Kochia scoparia), lambsquarters (Chenopodium album), lentil (Lens culinaris), littleseed canarygrass (Phalaris minor), pea (Pisum sativum), potato (Solanum tuberosum), rape (Brassica napus), redroot pigweed (Amaranthus retroflexus), Russian thistle (Salsola kali), scentless chamomile (Matricaria inodora), sorghum (Sorghum vulgare), spring barley (Hordeum vulgare), sugar beet (Beta vulgaris), sunflower (Helianthus annuus), ivyleaf speedwell (Veronica hederaefolia), spring wheat (Triticum aestivum), winter wheat (Triticum aestivum), wild buckwheat (Polygonum convolvulus), wild mustard (Sinapis arvensis), wild oat (Avena fatua), windgrass (Apera spica-venti) and winter barley (Hordeum vulgare).
(§3) Treated plants and untreated controls were maintained in a greenhouse for approximately 21 to 28 days, after which all treated plants were compared to untreated controls and visually evaluated. Plant response ratings, summarized in Table D, are based upon a 0 to 100 scale where 0 is no effect and 100 is complete control. A dash response (−) means no test result.

[5] = tested on: scentless chamomile (Matricaria inodora); settings: POSTEMERGENCE
Protocol: as §1, §2, §3

[6] = tested on: blackgrass (Alopecurus myosuroides); settings: POSTEMERGENCE
Protocol: as §1, §2, §3

[7] = tested on: winter wheat (Triticum aestivum); settings: POSTEMERGENCE
Protocol: as §1, §2, §3

[8] = tested on: spring barley (Hordeum vulgare); settings: POSTEMERGENCE
Protocol: as §1, §2, §3

[9] = tested on: downy brome (Bromus tectorum); settings: POSTEMERGENCE
Protocol: as §1, §2, §3

[10] = tested on: annual bluegrass (Poa annua); settings: POSTEMERGENCE
Protocol: as §1, §2, §3

wild oat (Avena fatua) = settings: POSTEMERGENCE
Protocol: as §1, §2, §3

[11] = tested on: littleseed canarygrass (Phalaris minor); settings: POSTEMERGENCE
Protocol: as §1, §2, §3

[12] = tested on: spring wheat (Triticum aestivum); settings: POSTEMERGENCE
Protocol: as §1, §2, §3

[13] = tested on: Italian ryegrass (Lolium multiflorum); settings: POSTEMERGENCE
Protocol: as §1, §2, §3

[14] = tested on: jointed goatgrass (Aegilops cylindrica); settings: POSTEMERGENCE
Protocol: as §1, §2, §3

[15] = tested on: windgrass (Apera spica-venti); settings: POSTEMERGENCE
Protocol: as §1, §2, §3

[16] = tested on: green foxtail (Setaria viridis); settings: POSTEMERGENCE
Protocol: as §1, §2, §3

[17] = tested on: sunflower (Helianthus annuus); settings: POSTEMERGENCE
Protocol: as §1, §2, §3

[18] = tested on: common poppy (Papaver rhoeas); design: key: 0 is no effect; 100 is complete control; settings: POSTEMERGENCE
Protocol: as §1, §2, §3

[19] = tested on: wild mustard (Sinapis arvensis); design: key: 0 is no effect; 100 is complete control; settings: POSTEMERGENCE
Protocol: as §1, §2, §3

[20] = tested on: chickweed (Stellaria media); design: key: 0 is no effect; 100 is complete control; settings: POSTEMERGENCE
Protocol: as §1, §2, §3

[21] = tested on: black nightshade (Solanum nigra); design: key: 0 is no effect; 100 is complete control; settings: POSTEMERGENCE
Protocol: as §1, §2, §3

[22] = tested on: sugar beet (Beta vulgaris); design: key: 0 is no effect; 100 is complete control; settings: POSTEMERGENCE
Protocol: as §1, §2, §3

Structure (SMILES): Cc1cnc(-n2cnc(C(F)(F)F)n2)nc1Cn1ccc(C(F)(F)F)n1 [Compound 51]
- Plant response rating, Field violet ([1]; Rate 31 g/ha): 65
- Plant response rating, Field violet ([1]; Rate 62 g/ha): 65
- Plant response rating, Common poppy ([2]; Rate 31 g/ha): 100
- Plant response rating, Common poppy ([2]; Rate 62 g/ha): 100
- Plant response rating, Annual bluegras ([3]; Rate 31 g/ha): 85
- Plant response rating, Annual bluegras ([3]; Rate 62 g/ha): 100

Structure (SMILES): Cc1cnc(-n2ccc(C(F)(F)F)n2)nc1Cn1ccc(C(F)(F)F)n1 [Compound 52]
- Plant response rating, Annual bluegras ([3]; Rate 31 g/ha): 50
- Plant response rating, Annual bluegras ([3]; Rate 62 g/ha): 100
- Plant response rating, Annual bluegras ([3]; Rate 125 g/ha): 100
- Plant response rating, Barley (winter) ([4]; Rate 16 g/ha): 10
- Plant response rating, Barley (winter) ([4]; Rate 31 g/ha): 10
- Plant response rating, Barley (winter) ([4]; Rate 62 g/ha): 10
- Plant response rating, Barley (winter) ([4]; Rate 125 g/ha): 10
- Plant response rating, Scentless chamo ([5]; Rate 16 g/ha): 30
- Plant response rating, Scentless chamo ([5]; Rate 31 g/ha): 50
- Plant response rating, Scentless chamo ([5]; Rate 62 g/ha): 60
- Plant response rating, Scentless chamo ([5]; Rate 125 g/ha): 70
- Plant response rating, Blackgrass ([6]; Rate 16 g/ha): 10
- Plant response rating, Blackgrass ([6]; Rate 31 g/ha): 10
- Plant response rating, Blackgrass ([6]; Rate 62 g/ha): 10
- Plant response rating, Blackgrass ([6]; Rate 125 g/ha): 10
- Plant response rating, Wheat (winter) ([7]; Rate 16 g/ha): 10
- Plant response rating, Wheat (winter) ([7]; Rate 31 g/ha): 10
- Plant response rating, Wheat (winter) ([7]; Rate 62 g/ha): 10
- Plant response rating, Wheat (winter) ([7]; Rate 125 g/ha): 10
- Plant response rating, Spring Barley ([8]; Rate 16 g/ha): 10
- Plant response rating, Spring Barley ([8]; Rate 31 g/ha): 10
- Plant response rating, Spring Barley ([8]; Rate 62 g/ha): 10
- Plant response rating, Spring Barley ([8]; Rate 125 g/ha): 10
- Plant response rating, Downy brome ([9]; Rate 16 g/ha): 10
- Plant response rating, Downy brome ([9]; Rate 31 g/ha): 20
- Plant response rating, Downy brome ([9]; Rate 62 g/ha): 20
- Plant response rating, Downy brome ([9]; Rate 125 g/ha): 20
- Plant response rating, Annual bluegras ([10]; Rate 16 g/ha): 10
- Plant response rating, Annual bluegras ([10]; Rate 31 g/ha): 20
- Plant response rating, Annual bluegras ([10]; Rate 62 g/ha): 20
- Plant response rating, Annual bluegras ([10]; Rate 125 g/ha): 50
- Plant response rating, Wild oat (wild oat (Avena fatua); Rate 16 g/ha): 10
- Plant response rating, Wild oat (wild oat (Avena fatua); Rate 31 g/ha): 10
- Plant response rating, Wild oat (wild oat (Avena fatua); Rate 62 g/ha): 10
- Plant response rating, Wild oat (wild oat (Avena fatua); Rate 125 g/ha): 10
- Plant response rating, LS canarygrass ([11]; Rate 16 g/ha): 10
- Plant response rating, LS canarygrass ([11]; Rate 31 g/ha): 10
- Plant response rating, LS canarygrass ([11]; Rate 62 g/ha): 10
- Plant response rating, LS canarygrass ([11]; Rate 125 g/ha): 20
- Plant response rating, Spring Wheat ([12]; Rate 16 g/ha): 10
- Plant response rating, Spring Wheat ([12]; Rate 31 g/ha): 10
- Plant response rating, Spring Wheat ([12]; Rate 62 g/ha): 10
- Plant response rating, Spring Wheat ([12]; Rate 125 g/ha): 10
- Plant response rating, I. Ryegrass ([13]; Rate 16 g/ha): 5
- Plant response rating, I. Ryegrass ([13]; Rate 31 g/ha): 10
- Plant response rating, I. Ryegrass ([13]; Rate 62 g/ha): 10
- Plant response rating, I. Ryegrass ([13]; Rate 125 g/ha): 10
- Plant response rating, Jointed goatgra ([14]; Rate 16 g/ha): 10
- Plant response rating, Jointed goatgra ([14]; Rate 31 g/ha): 10
- Plant response rating, Jointed goatgra ([14]; Rate 62 g/ha): 10
- Plant response rating, Jointed goatgra ([14]; Rate 125 g/ha): 10
- Plant response rating, Windgrass ([15]; Rate 16 g/ha): 10
- Plant response rating, Windgrass ([15]; Rate 31 g/ha): 10
- Plant response rating, Windgrass ([15]; Rate 62 g/ha): 20
- Plant response rating, Windgrass ([15]; Rate 125 g/ha): 50
- Plant response rating, Green foxtail ([16]; Rate 16 g/ha): 10
- Plant response rating, Green foxtail ([16]; Rate 31 g/ha): 10
- Plant response rating, Green foxtail ([16]; Rate 62 g/ha): 10
- Plant response rating, Green foxtail ([16]; Rate 125 g/ha): 30
- Plant response rating, Sunflower ([17]; Rate 16 g/ha): 40
- Plant response rating, Sunflower ([17]; Rate 31 g/ha): 20
- Plant response rating, Sunflower ([17]; Rate 62 g/ha): 50
- Plant response rating, Sunflower ([17]; Rate 125 g/ha): 70
- Plant response rating, Common poppy ([18]; Rate 16 g/ha): 60
- Plant response rating, Common poppy ([18]; Rate 31 g/ha): 100
- Plant response rating, Common poppy ([18]; Rate 62 g/ha): 100
- Plant response rating, Common poppy ([18]; Rate 125 g/ha): 100
- Plant response rating, Wild mustard ([19]; Rate 16 g/ha): 60
- Plant response rating, Wild mustard ([19]; Rate 31 g/ha): 70
- Plant response rating, Wild mustard ([19]; Rate 62 g/ha): 98
- Plant response rating, Wild mustard ([19]; Rate 125 g/ha): 100
- Plant response rating, Chickweed ([20]; Rate 16 g/ha): 30
- Plant response rating, Chickweed ([20]; Rate 31 g/ha): 50
- Plant response rating, Chickweed ([20]; Rate 62 g/ha): 70
- Plant response rating, Chickweed ([20]; Rate 125 g/ha): 80
- Plant response rating, Blk nightshade ([21]; Rate 16 g/ha): 55
- Plant response rating, Blk nightshade ([21]; Rate 31 g/ha): 60
- Plant response rating, Blk nightshade ([21]; Rate 62 g/ha): 65
- Plant response rating, Blk nightshade ([21]; Rate 125 g/ha): 65
- Plant response rating, Sugar beet ([22]; Rate 16 g/ha): 100
- Plant response rating, Sugar beet ([22]; Rate 31 g/ha): 100
- Plant response rating, Sugar beet ([22]; Rate 62 g/ha): 100
- Plant response rating, Sugar beet ([22]; Rate 125 g/ha): 100

From US6525001B1, “Substituted pyrimidine and pyridine herbicides” (Mid-American Commercialization Corporation, priority 1997, dated 2003)
